Consider 33 compounds from ChEMBL document CHEMBL1121815, “Chemically reactive estrogens: synthesis and estrogen receptor interactions of hexestrol ether derivatives and 4-substituted deoxyhexestrol derivatives bearing alkylating functions” (J Med Chem, 1981).

What is called half-life is the time in which the quantity being followed falls by half.

Series [1] has as its target T1, Estrogen receptor (Ovis aries) (UniProt P49885+Q9TU15). Briefly: Binding affinity against estrogen receptor in lamb uterine cytosol, relative to that of [3H]estradiol. In kind it is protein assay.
Series [2] can be described thus: Half life was determined. It counts as ADME. The settings on record: rat.
For series [3], the target named is T1, Estrogen receptor (Ovis aries). Briefly: Inactivation of lamb uterine estrogen receptor. It counts as protein assay. Set-up: concentration or dose not given beside the values.

In series [1], `CC[C@H](c1ccc(O)cc1)[C@@H](CC)c1ccc(OCC(=O)C=[N+]=[N-])cc1` registered a Binding affinity of 2%.
In turn, `CC[C@H](c1ccc(O)cc1)[C@@H](CC)c1ccc(C(=O)CCl)cc1` showed a half-life in series [2] of 30 min. Also, the Binding affinity in series [1] was determined as 0.44%. The compound also showed an Inactivation in series [3] of 29%.
In the case of `CC[C@H](c1ccc(O)cc1)[C@@H](CC)c1ccc(OCC(=O)CCl)cc1`, the half-life in series [2] was 15 min. Moreover, in series [1], the Binding affinity is 10%. The compound further showed an Inactivation in series [3] of 31%.
In the case of `CCOC(=N)c1ccc([C@H](CC)[C@H](CC)c2ccc(O)cc2)cc1`, the Binding affinity in series [1] worked out at 1.9%.
The compound `CC[C@H](c1ccc(O)cc1)[C@@H](CC)c1ccc(C(=O)CBr)cc1` yielded a half-life in series [2] of less than 30 min. Moreover, the Binding affinity in series [1] was determined as 1.1%. For the same compound, the Inactivation in series [3] is 44%.
In the case of `CC[C@H](c1ccc(O)cc1)[C@@H](CC)c1ccc(OCC(=O)O)cc1`, in series [1], the Binding affinity amounted to 0.12%.
In series [1], `CC[C@H](c1ccc(O)cc1)[C@@H](CC)c1ccc([N+](=O)[O-])cc1` gave a Binding affinity of 11%.
The compound `CCOC(=O)COc1ccc([C@H](CC)[C@H](CC)c2ccc(O)cc2)cc1` returned a Binding affinity in series [1] of 2.2%.
`CC[C@H](c1ccc(O)cc1)[C@@H](CC)c1ccc(OCC2CO2)cc1` (stereo partly drawn) showed a half-life in series [2] of 240 min. In series [1], this compound yielded a Binding affinity of 7.4%. The compound also registered an Inactivation in series [3] of 44%.
For the compound `CC[C@H](c1ccc(O)cc1)[C@@H](CC)c1ccc(OCCO)cc1`, the Binding affinity in series [1] was 21%.
Still for that read-out and setting: the figure for `CC[C@H](c1ccc(O)cc1)[C@@H](CC)c1ccc(OCC(C)=O)cc1` is 11%; for `CC[C@H](c1ccc(O)cc1)[C@@H](CC)c1ccc(N=[N+]=[N-])cc1` it is 5.7%.
Still for that read-out and setting: as for `CC[C@H](c1ccc(O)cc1)[C@@H](CC)c1ccc(S(=O)(=O)N=[N+]=[N-])cc1`, the figure is 1.8%.
With `CC[C@H](c1ccc(O)cc1)[C@@H](CC)c1ccc(CBr)cc1`, the half-life in series [2] is 150 min. The same compound registered a Binding affinity in series [1] of 9.3%. This compound came in with an Inactivation in series [3] of 70%.
`CCC(c1ccc(O)cc1)C(CC)c1ccc(OC)cc1` (stereo not drawn) had a Binding affinity in series [1] of 17%.
In series [1], `CC[C@H](c1ccc(O)cc1)[C@@H](CC)c1ccc(CO)cc1` registered a Binding affinity of 40%.
On the same count and under the same terms, as for `CC[C@H](c1ccc(O)cc1)[C@@H](CC)c1ccc(C(C)=O)cc1`, the figure is 4.1%; as for `CC[C@H](c1ccc(O)cc1)[C@@H](CC)c1ccc(OCC(C)O)cc1` (stereo partly drawn), 4.3%.
In series [2], `CC[C@H](c1ccc(O)cc1)[C@@H](CC)c1ccc(CCl)cc1` had a half-life of 78 min. Moreover, in series [1], the Binding affinity stood at 8%. The compound also came in with an Inactivation in series [3] of 63%.
Take `C=CCc1cc([C@@H](CC)[C@@H](CC)c2ccc(O)cc2)ccc1O`: the Binding affinity in series [1] amounted to 54%.
On the same count and under the same terms, the figure for `C=CCOc1ccc([C@H](CC)[C@H](CC)c2ccc(O)cc2)cc1` is 5.4%.
Take `CC[C@H](c1ccc(O)cc1)[C@@H](CC)c1ccc(OCC(O)CO)cc1` (stereo partly drawn): the Binding affinity in series [1] amounted to 6.9%.
On to `CC[C@H](c1ccc(O)cc1)[C@@H](CC)c1ccc(OCC(O)CBr)cc1` (stereo partly drawn), for which the half-life in series [2] is 30 min. This compound displayed a Binding affinity in series [1] of 3.2%. The Inactivation in series [3] came out at 36%.
In the same order, the values of `CC[C@H](c1ccc(O)cc1)[C@@H](CC)c1ccc(S(=O)(=O)F)cc1` are 60 min, 0.33% and 24%.
`CC[C@H](c1ccc(O)cc1)[C@@H](CC)c1ccc(C(=O)O)cc1` had a Binding affinity in series [1] of 1.8%.
The same measure, in the same setting: the figure for `CC[C@H](c1ccc(O)cc1)[C@@H](CC)c1ccc(N)cc1` is 95%; for `CC[C@H](c1ccc(O)cc1)[C@@H](CC)c1ccc(C#N)cc1` it is 5.2%.
`CC[C@H](c1ccc(O)cc1)[C@@H](CC)c1ccc(OCCOCCCl)cc1`: in series [1], the Binding affinity was 0.9%.
With `CC[C@H](c1ccc(O)cc1)[C@@H](CC)c1ccc(OC)cc1`, in series [1], the Binding affinity was 19%.
In series [2], `CC[C@H](c1ccc(O)cc1)[C@@H](CC)c1ccc(OCC(=O)CBr)cc1` returned a half-life of less than 30 min. The Binding affinity in series [1] amounted to 9.5%. The compound further displayed an Inactivation in series [3] of 24%.
The compound `CC[C@H](c1ccc(O)c(CCCO)c1)[C@@H](CC)c1ccc(O)cc1` displayed a Binding affinity in series [1] of 12%.
Take `CC[C@H](c1ccc(O)cc1)[C@@H](CC)c1ccc(OCC(O)CCl)cc1` (stereo partly drawn): the half-life in series [2] was 30 min. Further, the Binding affinity in series [1] was determined as 4%. The Inactivation in series [3] worked out at 24%.
In series [1], `CCOCc1ccc([C@H](CC)[C@H](CC)c2ccc(O)cc2)cc1` gave a Binding affinity of 4.9%.
